{"source": "patent EP4623911A1", "about": "“PI4KB INHIBITORS FOR THE TREATMENT OF FATTY LIVER DISEASE” (ETH Zurich, priority 2024, dated 2025)", "key": {"[1]": {"assay": "Indirect calorimetry in HFD-fed mice", "assay_type": "in vivo", "details": "HFD mixed with UCB9608 (5 mg/kg) for 3 weeks, vs DMSO", "protocol": "8-10 weeks old C57BL/6N male mice were fed on HFD mixing with DMSO or UCB9608 (5 mg/kg) for 3 weeks before indirect calorimetry measurements were performed with Phenomaster (TSE systems) according to the manufacturer's instructions. Animals were single caged and adapted to the metabolic cage for 48h prior to metabolic recording. The energy expenditure between both groups was analyzed via ANCOVA method and RER was analyzed via two-way ANOVA method."}, "steatotic human liver": {"system": "steatotic human liver", "assay": "Ex vivo normothermic machine perfusion of a steatotic human liver graft", "protocol": "A human liver graft was perfused for 8 days, after being discarded from all Swiss transplant centers. Use of discarded grafts was approved by local authorities (Kantonale Ethik Kommission Zürich KEK Nr. 2017-000412). […] The liver was procured with a total ischemia time of 40 min after circulatory death of the donor. It was flushed with IGL-1 solution and perfused for 2 h with Belzer MPS at 8°C. The infrahepatic vena cava was closed with a suture and the hepatic artery, portal vein, suprahepatic vena cava and common bile duct were cannulated with steel cannulas. The graft was subsequently perfused with whole blood and a custom built normothermic perfusion machine (Eshmuminov,D. et al, Nat Biotechnol 38, (2020)). Hepatic arterial pressure was controlled to be 80/50 mmHg, allowing for an average flow of 0.25 L/min. A vasodilator, epoprostenol, was automatically infused to keep arterial flow stable. Oxygenation was automatically controlled with a setpoint partial pressure of oxygen equal to 12 kPa. Portal venous flow was controlled to be at 1 L/min, resulting in a pressure of 2 mmHg on average. Further, oxygenation of portal blood was automatically regulated to achieve 65% saturation in the vena cava. Use of an electric pinch valve further allowed for pressure regulation in the vena cava, keeping a constant pressure of 0 mmHg. Glucose levels were automatically controlled by using a real-time glucose sensor (CCIT) and automated insulin infusions, keeping glucose levels at 7 mmol/L from the second day of perfusion onwards. A dialysis bypass was used to clear waste metabolites and control haematocrit levels by using a fixed dialysate influx rate of 200 mL/h and an automatically controlled outflux. Liver function was well preserved for at least 6 days and cell viability, as monitored by ATP analysis and histology, remained until the end of perfusion. After 8 days of perfusion, the liver weight decreased to 1507g (without gallbladder) and was sent for pathological examination.\nPerfusate was mixed with 6 units of red blood cell concentrate (A+), 5 units of fresh frozen […], one unit of thrombocytes and 200 mL of 20% human albumin (CSL Behring). An initial bolus of 2.25 g Tazobactam and 500 mg Methylprednisolone was administered after priming. During the perfusion, 1000 U of heparin were infused per hour. Further, 2.25 g of Tazobactam, 3.36 g of ursodesoxycholic acid and 500 mg of methylprednisolone were continuously infused per day. UCB9608 was administered as a daily bolus by adding 300 µL of 50 mM solution directly to the blood reservoir, targeting a final concentration in the perfusate of 10 µM. On the first day, a larger bolus of 600 µL was given.\nAdipose depots, liver pieces, differentiated iBAs, HepG2, HEK293T and HEK293-AAV cell types were homogenized in RIPA buffer (50 mM Tris-HCl pH 7.4, 150 mM NaCl, 2 mM EDTA, 1.0% Triton X100, 0.5% sodium deoxycholate) with protease inhibitors (Complete, Roche) and phosphatase inhibitors (Halt phosphatase inhibitor cocktail, ThermoFisher). The homogenates were centrifuged at 12,000×g for 10 min at 4°C to remove debris and collect whole cell extract (WCE). The concentration of WCE was determined by DC Protein Assay (Bio-Rad). After boiling the sample with Lämmeli buffer at 95°C for 5 min, equal amount of proteins was loaded and separated on 12% SDS-PAGE. […]"}, "murine NASH model": {"system": "murine NASH model", "assay": "Murine NASH model (HFD, glucose/fructose drinking water, thermoneutral housing) treated with UCB9608", "assay_type": "in vivo, mice", "protocol": "To model NASH in murine liver, male C57BL/6N mice were challenged with HFD for 24 weeks in conjunction with 18.9 g/L glucose&23.1 g/L fructose containing drinking water under thermoneutral housing condition (29°C) for 12 weeks before the administration of UCB9608 through HFD (15 mg/kg) for another 12 weeks. Then the mice were analysed in EcoMRI for body composition measurement before 6 hours fasting, followed by dissection to harvest liver and sample blood.\nTotal RNA was extracted from adipose depots, liver or in vitro cell cultures via Trizol reagent (Invitrogen) according to the manufacturer's instructions. Genomic DNA was removed from the crude RNA samples by DNase treatment (NEB BioLabs). For individual sample, 1 µg of total RNA was used to convert into cDNA library by using the High-Capacity cDNA Reverse transcription kit (Applied Biosystems, 4368813). Quantitative PCR was performed using KAPA SYBR FAST Universal kit (Roche, KK4618) on ViiA7 (Applied Biosystems) and the relative transcript levels were normalized to […] expression via ΔΔCt method. Table 2: Sequences of qPCR primers used in this study.\nPlasma collected from mice under different conditions was used to determine levels of lipolysis and liver injury. FFA levels were measured via NEFA assay kit (Wako NEFA kit). TG levels were determined via TG assay kit (Roche Trig/GB reagent). ALT (MAK052, Sigma) and AST (MAK055, Sigma) assay kits were used to determine ALT and AST activity according to the manufacturer's instructions. The absorbance was monitored using Synergy Gen5 Platereader.\nWeight of liver pieces (50-100 mg) was recorded before homogenization by 1 mL isopropanol per 50 mg tissue. The homogenates were incubated at room temperature with rotating before spinning down to remove debris at 2000×g for 10 min and collect supernatant. The TG levels were determined (Roche Trig/GB reagent) in Synergy Gen5 Platereader and normalized to the weight of liver pieces.\nFor NASH cohort, livers were dissected and fixed with 4% PFA in PBS for 24 h at 4°C. The samples were sent to the University of Zurich for histologic analyses. Briefly, liver tissues were dehydrated and embedded in paraffin and underwent section at 3 µm. The slides were stained with hematoxylin and eosin (H&E) and Gomori Green Trichrome directly or stained with anti-cleaved Caspase 3 after antigen retrieval. Afterwards, the images were captured by digital slide scanners and the grade of steatosis, ballooning, inflammation and fibrosis were quantified via the NASH Clinical Research Network Scoring System (Kleiner,D.E. et al. Hepatology 41, (2005)). To perform ORO staining, the fixed samples were sectioned, and the slides were stained via Oil Red O solution, followed by counter-staining with eosin. The images were acquired by digital slide scanners."}, "[2]": {"details": "UCB9608 daily, target concentration 10 µM, 8 days perfusion, unchanged in two control grafts"}, "[3]": {"details": "NASH mice, 12 weeks after administration of UCB9608"}, "[4]": {"details": "liver histology, NASH mice, UCB9608 vs vehicle"}}, "note": "Entries after “also recorded” stand apart in the source; their conditions may differ.", "data": [{"compound": "COc1ccc(NC(=O)N2CCN(c3nc(N)nc4c3cnn4C)[C@@H](C)C2)c(C)c1", "note": "[UCB9608]", "values": [{"measurement": "energy expenditure", "setting": "[1]", "result": "higher"}, {"measurement": "ATGL levels in human liver biopsies", "setting": "steatotic human liver; [2]", "result": "substantially elevated"}, {"measurement": "TG deposition in human liver biopsies", "setting": "steatotic human liver; [2]", "result": "reduced"}, {"measurement": "macrovesicular steatosis of the liver graft", "setting": "steatotic human liver; after 8 days of perfusion, 15% before perfusion", "result": "less than 5%"}, {"measurement": "bile acid excretion and oxygen consumption of the graft", "setting": "steatotic human liver; during perfusion with UCB9608", "result": "normal"}, {"measurement": "non-esterified fatty acids (NEFAs) from dialysate", "setting": "steatotic human liver; during perfusion with UCB9608", "result": "detected"}, {"measurement": "transcript levels of inflammatory markers", "setting": "murine NASH model; NASH livers, qPCR", "result": "mitigation"}, {"measurement": "fibrosis-related marker expression", "setting": "murine NASH model; NASH livers, qPCR, vs vehicle-treated control NASH mice", "result": "substantially ameliorated"}, {"measurement": "TG levels in the plasma", "setting": "murine NASH model; [3]", "result": "reduction; also recorded: reduced"}, {"measurement": "lipolysis (plasma FFA levels)", "setting": "murine NASH model; [3]", "result": "enhanced"}, {"measurement": "ALT activity in the plasma", "setting": "murine NASH model; NASH mice, UCB9608 12 weeks", "result": "reduction"}, {"measurement": "AST activity in the plasma", "setting": "murine NASH model; NASH mice, UCB9608 12 weeks", "result": "reduction"}, {"measurement": "hepatic TG levels", "setting": "murine NASH model; NASH mice, UCB9608 12 weeks", "result": "reduced"}, {"measurement": "liver mass/body weight ratio", "setting": "murine NASH model; NASH mice, UCB9608 12 weeks", "result": "reduced"}, {"measurement": "body weight", "setting": "murine NASH model; NASH mice, UCB9608 through HFD (15 mg/kg) for 12 weeks", "result": "significant loss"}, {"measurement": "fat mass", "setting": "murine NASH model; NASH mice, UCB9608 through HFD (15 mg/kg) for 12 weeks, EcoMRI", "result": "significant loss"}, {"measurement": "NAFLD activity score", "setting": "murine NASH model; [4]", "result": "significantly lower"}, {"measurement": "fibrosis grade", "setting": "murine NASH model; [4]", "result": "significantly lower"}, {"measurement": "inflammation levels", "setting": "murine NASH model; [4]", "result": "significantly lower"}, {"measurement": "liver injury", "setting": "murine NASH model; [4]", "result": "significantly lower"}, {"measurement": "steatosis grade", "setting": "murine NASH model; [4]", "result": "significantly lower"}, {"measurement": "fatty acid oxidation", "setting": "murine NASH model; liver of NASH mice, UCB9608 12 weeks", "result": "significant elevation"}]}]}
